Laboratory results as given in ChEMBL document CHEMBL5528028, “Discovery of benzopyridone cyanoacetates as new type of potential broad-spectrum antibacterial candidates” (Eur J Med Chem, 2024).
Converted amounts (≈) assume the structure as drawn.

Tests used:
[1] = Tmax in mouse at 10 mg/kg, iv; type: ADME, organism-based; details: in vivo
[2] = AUMC (0 to t) in mouse at 10 mg/kg, po; type: ADME, organism-based; details: in vivo
Erythrocyte = experiment: Hemolytic activity in human RBC incubated measured upto 128 ug/ml; type: toxicity, cell-based; details: dose < 128 µg/ml
[3] = MRT (0 to t) in mouse at 10 mg/kg, po; type: ADME, organism-based; details: in vivo
[4] = MRT (0 to t) in mouse at 10 mg/kg, iv; type: ADME, organism-based; details: in vivo
Staphylococcus aureus [5] = experiment: Antibacterial activity against Staphylococcus aureus assessed growth inhibition by micro broth dilution method; type: functional
[6] = Cmax in mouse at 10 mg/kg, po; type: ADME, organism-based; details: in vivo
[7] = Thermodynamic solubility of the compound in water; type: physicochemical; details: read-out: Therm_solubility
[8] = Cytotoxicity against human FHC cells assessed as cell viability at 8 ug/ml; type: toxicity, cell-based; details: at 8 µg/mL, read-out: Activity
Escherichia coli [9] = experiment: Antibacterial activity against Escherichia coli assessed growth inhibition by micro broth dilution method; type: functional
Escherichia coli [10] = experiment: Antibacterial activity against Escherichia coli ATCC 25922 assessed growth inhibition by micro broth dilution method; type: functional
[11] = AUMC (0 to t) in mouse at 10 mg/kg, iv; type: ADME, organism-based; details: in vivo
[12] = Initial plasma concentration in mouse at 10 mg/kg, iv; type: ADME, organism-based; details: in vivo
[13] = MRT (0 to infinity) in mouse at 10 mg/kg, po; type: ADME, organism-based; details: in vivo
[14] = Half life in mouse at 10 mg/kg, po; type: ADME, organism-based; details: in vivo
Klebsiella pneumoniae [15] = experiment: Antibacterial activity against Klebsiella pneumonia assessed growth inhibition by micro broth dilution method; type: functional
Klebsiella pneumoniae [16] = experiment: In vivo anti-infective effect against Klebsiella pneumonia p1-6305014 infected in mouse model assessed as reduction bacterial growth at 15 mg/kg; type: functional
Enterococcus faecalis = experiment: Antibacterial activity against Enterococcus faecalis assessed growth inhibition by micro broth dilution method; type: functional
Klebsiella pneumoniae [17] = experiment: Anti-biofilm activity against Klebsiella pneumonia assessed as relative biofilm clearance rate at 8 times of MIC by crystal violet staining based assay; type: functional
[18] = Oral bioavailability in mouse at 10 mg/kg; type: ADME, organism-based; details: in vivo
Acinetobacter baumannii = experiment: Antibacterial activity against Acinetobacter baumannii assessed growth inhibition by micro broth dilution method; type: functional
[19] = AUMC (0 to infinity) in mouse at 10 mg/kg, iv; type: ADME, organism-based; details: in vivo
[20] = AUMC (0 to infinity) in mouse at 10 mg/kg, po; type: ADME, organism-based; details: in vivo
Staphylococcus aureus [21] = experiment: Antibacterial activity against methicillin-resistant Staphylococcus aureus assessed growth inhibition by micro broth dilution method; type: functional
Staphylococcus aureus [22] = experiment: Anti-biofilm activity against Staphylococcus aureus ATCC 29213 assessed as relative biofilm clearance rate at 8 times of MIC by crystal violet staining based assay; type: functional
Pseudomonas aeruginosa [23] = experiment: Antibacterial activity against Pseudomonas aeruginosa ATCC 27853 assessed growth inhibition by micro broth dilution method; type: functional
[24] = Volume of distribution at steady state in mouse at 10 mg/kg, iv; type: ADME, organism-based; details: in vivo
[25] = AUC (0 to infinity) in mouse at 10 mg/kg, iv; type: ADME, organism-based; details: in vivo
Klebsiella pneumoniae [26] = experiment: In vivo anti-infective effect against Klebsiella pneumonia p1-6305014 infected in mouse model assessed as reduction bacterial growth at 5 mg/kg; type: functional
[27] = Apparent volume of distribution in mouse at 10 mg/kg, po; type: ADME, organism-based; details: in vivo
Pseudomonas aeruginosa [28] = experiment: Antibacterial activity against Pseudomonas aeruginosa assessed growth inhibition by micro broth dilution method; type: functional
[29] = Clearance in mouse at 10 mg/kg, iv; type: ADME, organism-based; details: in vivo
Staphylococcus aureus [30] = experiment: Antibacterial activity against Staphylococcus aureus ATCC 25923 assessed growth inhibition by micro broth dilution method; type: functional
Staphylococcus aureus [31] = experiment: Antibacterial activity against Staphylococcus aureus ATCC 29213 assessed growth inhibition by micro broth dilution method; type: functional
[32] = AUC (0 to t) in mouse at 10 mg/kg, iv; type: ADME, organism-based; details: in vivo
[33] = AUC (0 to t) in mouse at 10 mg/kg, po; type: ADME, organism-based; details: in vivo
[34] = Cmax in mouse at 10 mg/kg, iv; type: ADME, organism-based; details: in vivo
[35] = MRT (0 to infinity) in mouse at 10 mg/kg, iv; type: ADME, organism-based; details: in vivo
[36] = Cytotoxicity against human NOK cells assessed as cell viability at 8 ug/ml; type: toxicity, cell-based; details: nok-si, dose 8 µg/ml
[37] = Half life in mouse at 10 mg/kg, iv; type: ADME, organism-based; details: in vivo
[38] = AUC (0 to infinity) in mouse at 10 mg/kg, po; type: ADME, organism-based; details: in vivo
[39] = Tmax in mouse at 10 mg/kg, po; type: ADME, organism-based; details: in vivo
[40] = Clearance in mouse at 10 mg/kg, po; type: ADME, organism-based; details: in vivo
[41] = Hemolytic activity in human RBC assessed as hemolytic rate incubated measured upto 64 ug/ml; type: toxicity, cell-based, Erythrocyte; details: human red blood cells (erythrocytes), up to 64 µg/mL, read-out: Activity

CCCCCCCCn1cc(C(=O)OCC)c(=O)c2cc(F)c([C-](C#N)C(=O)OCC)cc21.[Na+] (stereo not given)
Tmax [1]: 1.98 min
AUMCt [2]: 523 hr.hr.ng/ml
Activity (Erythrocyte): Non-Toxic
MRT last [3]: 161 min
MRT last [4]: 9 min
MIC (Staphylococcus aureus [5]): 16 µg/mL
Cmax [6]: 89 ng/mL
solubility thermodynamic [7]: 27.5 µg/mL
viability at 8 ug/ml [8]: 70%
MIC (Escherichia coli [9]): 0.25 µg/mL
MIC (Escherichia coli [10]): 0.25 µg/mL
AUMCt [11]: 13.3 hr.hr.ng/ml
C0 [12]: 1046 ng/mL
MRT [13]: 250 min
half-life [14]: 133 min
MIC (Klebsiella pneumoniae [15]): 0.25 µg/mL
Activity (Klebsiella pneumoniae [16]): 4 log10CFU
MIC (Enterococcus faecalis): 4 µg/mL
Activity (Klebsiella pneumoniae [17]): 70%
F [18]: 26.6%
MIC (Acinetobacter baumannii): 0.25 µg/mL
AUMC [19]: 15 hr.hr.ng/ml
AUMC [20]: 1035 hr.hr.ng/ml
MIC (Staphylococcus aureus [21]): 8 µg/mL
Activity (Staphylococcus aureus [22]): 70%
MIC (Pseudomonas aeruginosa [23]): 0.5 µg/mL
Vdss [24]: 1.976 L/kg
AUC [25]: 90.6 ng·h/mL
Activity (Klebsiella pneumoniae [26]): 1.5 log10CFU
Vz [27]: 133.561 L/kg
MIC (Pseudomonas aeruginosa [28]): 0.5 µg/mL
CL [29]: 191.07 mL/min/kg
MIC (Staphylococcus aureus [30]): 0.25 µg/mL
MIC (Staphylococcus aureus [31]): 0.25 µg/mL
AUC(0-t) [32]: 89.3 ng·h/mL
AUC(0-t) [33]: 196 ng·h/mL
Cmax [34]: 549 ng/mL
MRT inf [35]: 10.2 min
Activity [36]: Non-Toxic
half-life [37]: 12 min
AUC [38]: 241 ng·h/mL
Tmax [39]: 30 min
CL/F [40]: 698 mL/min/kg

CCCCCCCCn1cc(C(=O)OCC)c(=O)c2cc(F)c(C(C#N)C(=O)OCC)cc21 (stereo not given)
MIC (Staphylococcus aureus [5]): 8 µg/mL (≈ 17.4 µM)
hemolysis [41]: 50%
MIC (Escherichia coli [9]): 2 µg/mL (≈ 4.36 µM)
MIC (Escherichia coli [10]): 2 µg/mL (≈ 4.36 µM)
MIC (Klebsiella pneumoniae [15]): 0.5 µg/mL (≈ 1.09 µM)
MIC (Enterococcus faecalis): 4 µg/mL (≈ 8.72 µM)
MIC (Acinetobacter baumannii): 0.5 µg/mL (≈ 1.09 µM)
MIC (Staphylococcus aureus [21]): 8 µg/mL (≈ 17.4 µM)
MIC (Pseudomonas aeruginosa [23]): 0.5 µg/mL (≈ 1.09 µM)
MIC (Pseudomonas aeruginosa [28]): 0.5 µg/mL (≈ 1.09 µM)
MIC (Staphylococcus aureus [30]): 1 µg/mL (≈ 2.18 µM)
MIC (Staphylococcus aureus [31]): 0.5 µg/mL (≈ 1.09 µM)
